These results are taken from patent US20100331363A1, “TREATMENT OF MITOCHONDRIAL DISORDERS USING A FARNESYL TRANSFERASE INHIBITOR” (Link Medicine Corporation, priority 2008, published 2010).

One experiment has as its system INS-1 cells. As to the kind of experiment: Whole cell mitochondrial fusion assay (paGFP) in INS-1 cells. The experiment is classed as cell-based. To be noted: 1 nM, 48 hours. An excerpt: Mitochondrial dynamics is necessary for the maintenance of bioenergetic functions and maintenance of homogenous population of mitochondria. Mutations in Mfn2 and Opal have been implicated in neuropathies. A whole cell fusion assay was used to evaluate the effect of LNK-754 on the enhancement of mitochondrial fusion and fission events. Photo-activateable GFP is used to label and follow an individual mitochondrion. Photo-activatable GFP becomes fluorescent only after absorbing UV light. Mitochondria undergo frequent fusion and fission. During fusion, the labeled mitochondrion passes fluorescent GFP to a neighboring unlabeled mitochondrion (Molina and Shirihai, […], 2009). […] The following assay protocol was followed: paGFP expression was carried out using adenoviral transduction if INS-1 cells. The cells were treated for 48 hours with 1 nM LNK-754. Mitochondria were labeled with TMRE to facilitate tagging. UV pulse was delivered by two-photon laser. Z-stacks of individual cells were taken every 5 minutes for 30 minutes. Three separate runs were performed over 3 weeks at imaging facilities.

In the next experiment the test system is Aβ. As to the kind of experiment: h-APPs1 transgenic mouse, Aβ levels. The experiment is classed as in vivo. To be noted: 0.9 mg/kg once every 24 hr, three months. The source says:
(§1) Finally, it is important to note that LNK-754-TS had no effect on APP processing and secretion in a cell culture model of pathogenic Aβ production (Selkoe, D. J., et al. Ann N Y Acad Sci 777, 57-64 (1996)).

Experiment [1] relates to APP processing and secretion. As to the kind of experiment: APP processing and secretion in a cell culture model of pathogenic Aβ production. The class given is cell-based.
Source text: as §1

Experiment [2] relates to LC3-positive puncta (autophagosomes). Put plainly: LC3 immunostaining (LC3-positive puncta) in SH-SY5Y cells. The class given is cell-based, human. To be noted: 100 nM, SH-SY5Y (FIG. 8b). As for the experimental part: (§2) Cell culture and immunocytochemistry: SH-SY5Y cells were grown in DMEM medium supplemented with 10% FBS and 1% pen/strep at 37° C. and 5% CO2. Cells were differentiated with 10 μM retinoic acid for 48 hr, then treated with the either rapamycin (100 nM or 1 μM) or with 100 nM of either LNK-754-TS or Tipifarnib for 48-72 hr. Cells were then fixed with 4% paraformaldehyde and stained for LC3 (Novus biological, NB100-2331, dilution 1:800) followed by secondary Alexa-564 anti-Rabbit (A-11011).
(§3) Autophagy was measured in a neuroblastoma cell culture system by three distinct approaches: quantitation of autophagy-related mRNA's, immunofluorescence microscopy of autophagosomes, and biochemical detection of the microtubule-associated protein 1 light chain 3 (LC3) a key protein that is required for autophagosome formation. Differentiated human neuroblastoma cells (SH-SY5Y) were treated for 72 hr with LNK-754-TS (0.01-100 nM), Zarnestra® (also referred to herein as tipifarnib) (100 nM) or rapamycin (1 μM).

In another experiment the test system is LC3 mRNA. Put plainly: LC3 mRNA (qPCR) in SH-SY5Y cells. The class given is cell-based, human. As to the method:
as §2
Quantitative real-time PCR: Gene expression profiles were done by qPCR on series of known autophagy genes. RNA was extracted with Tri-reagent (Sigma), and cDNAs generated using iScript (Biorad). qPCR analysis was carried out in a 96 well plate using an iCycler (BioRad, Hercules, Calif.), and iQ SYBR Green Supermix (Biorad) according to the manufacturer's specifications.
Such increases in LC3 mRNA levels are associated in the literature with stimulation of macroautophagy. This supports the hypothesis that at doses as low as 1 nM in this in vitro system there is stimulation of autophagy in these cells.
as §3

For the next experiment, the system named is Ras. Put plainly: Inhibition of Ras farnesylation in SH-SY5Y cells. The settings on record: continuous exposure over long periods, average. The experiment is classed as cell-based, human.

The structures appear in SMILES notation. Entries after “also recorded” stand apart in the source; their conditions may differ.

By IC50 is commonly meant the concentration that inhibits the measured activity by half. Read a low IC50 as higher potency.

As to `C#Cc1cccc(-c2cc(=O)n(C)c3ccc([C@](O)(c4ccc(Cl)cc4)c4cncn4C)cc23)c1` [LNK-754, (R)-6-[(4-chlorophenyl)-hydroxyl-(1-methyl-1-H-imidazol-5-yl)-methyl]-4-(3-ethynylphenyl)-1-methyl-2-(1H)-quinonlinone], the “mitochondrial dynamics (fusion and fission)” value in the experiment with INS-1 cells is on record as “promotes mitochondrial dynamics”.
Take `C#Cc1cccc(-c2cc(=O)n(C)c3ccc([C@](O)(c4ccc(Cl)cc4)c4cncn4C)cc23)c1` [LNK-754-TS, (R)-6-[(4-chlorophenyl)-hydroxyl-(1-methyl-1-H-imidazol-5-yl)-methyl]-4-(3-ethynylphenyl)-1-methyl-2-(1H)-quinonlinone (2S, 3S)-dihydroxybutanedioate]: in the experiment on Aβ, the “amounts of more soluble Aβ42 species” value is listed as “small reduction”; the “cortical Aβ immunoreactivity and Aβ in insoluble fractions” value is listed as “did not significantly reduce”. Besides, the “APP processing and secretion” value in experiment [1] is given as “no effect”. Further, in experiment [2], the “number of LC3-positive puncta” value is on record as “distinct increase; also recorded: increased”. Also, the LC3 transcript entry in the experiment with LC3 mRNA (0.01-100 nM, 72 hr, differentiated SH-SY5Y (FIG. 8a)) is recorded as “upregulated; also recorded: increased”. The “levels of mRNA of LC3” value in the experiment on LC3 mRNA (between 1 and 100 nM, SH-SY5Y, 72 hours (FIG. 4)) was “significant increases”. The compound further showed an IC50 in the experiment on Ras of 1 nM.
